Measured values: ChEMBL document CHEMBL5257041, “An exhaustive perspective on structural insights of SGLT2 inhibitors: A novel class of antidiabetic agent” (Eur J Med Chem, 2020)

Target: T1, Sodium/glucose cotransporter 2 (Homo sapiens, UniProt P31639)
T1 sequence (P31639 whole entry): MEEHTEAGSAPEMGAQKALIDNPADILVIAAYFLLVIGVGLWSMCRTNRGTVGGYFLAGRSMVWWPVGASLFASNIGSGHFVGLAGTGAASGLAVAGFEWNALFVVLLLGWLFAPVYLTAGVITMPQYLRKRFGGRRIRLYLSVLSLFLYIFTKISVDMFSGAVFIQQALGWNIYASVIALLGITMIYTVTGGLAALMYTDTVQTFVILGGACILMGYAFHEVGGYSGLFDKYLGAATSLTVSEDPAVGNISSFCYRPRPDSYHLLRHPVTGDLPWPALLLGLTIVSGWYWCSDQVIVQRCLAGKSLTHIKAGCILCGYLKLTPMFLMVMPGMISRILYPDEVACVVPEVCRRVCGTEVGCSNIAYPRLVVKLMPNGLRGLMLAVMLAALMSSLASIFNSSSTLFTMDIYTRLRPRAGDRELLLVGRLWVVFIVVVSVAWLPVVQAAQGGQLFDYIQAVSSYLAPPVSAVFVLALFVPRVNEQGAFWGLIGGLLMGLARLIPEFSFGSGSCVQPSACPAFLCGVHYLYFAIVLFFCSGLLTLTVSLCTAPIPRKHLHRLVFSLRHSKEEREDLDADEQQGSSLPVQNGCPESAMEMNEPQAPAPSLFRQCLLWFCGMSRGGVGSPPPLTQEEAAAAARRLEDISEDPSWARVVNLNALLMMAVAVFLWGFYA
Assay: Inhibition of human SGLT2

IC50: 350 pM
Structure (SMILES): CCc1ccc(Cc2cc([C@@H]3O[C@H](CO)C(F)(F)[C@H](O)[C@H]3O)ccc2Cl)cc1
